From patent US20210002725A1, “METHODS FOR THE DIAGNOSIS OF METABOLIC DISORDERS USING EPIMETABOLIC SHIFTERS, MULTIDIMENSIONAL INTRACELLULAR MOLECULES, OR ENVIRONMENTAL INFLUENCES” (Berg LLC, priority 2009, published 2021)
Like-named read-outs stand apart in the source and are kept apart here.

Key:
[1] = system: HepG2 (liver cancer) cells; experiment: Real-time PCR Diabetes Array; type: cell-based; details: for genes regulated in the Diabetes Arrays: 100 μM
Protocol: The treatment was initiated on 1×10^5 cells per well, following the procedure utilized in the PaCa2 cells (above, Examples 9-11). However, the total amount of RNA that was extracted from these samples was lower than expected. Reverse transcription is normally done using 1 μg of total RNA (determined by measurement at 260 nm).

IDH1 = experiment: Western blot of Isocitrate Dehydrogenase-1 levels in cells treated with Coenzyme Q10; type: cell-based, human
Protocol: The whole cell pellets were resuspended one at a time in 1 mL of C7 buffer and transferred to labeled 15 mL tubes. The samples were then sonicated in the cold room on ice using 6 sonic pulses with the setting at #14. The samples were spun for a short time to 2500 g after sonication and the samples transferred to 2 ml tubes. The pH was verified of each sample (pH should be 9.0) using the foam remaining in the […] sample tubes.
Alkylation and reduction of samples was performed for each sample by adding 10 ul of 1M acrylamide, 25 ul of tributylphoshene and incubation for 90 mins with intermittent mixing. After incubation, 10 ul of 1M DTT was added and the tubes were spun at 20,000 g at 20 deg C. for 10 minutes and transferred the supernatant to labeled Amicon Ultra centrifugal filter units with a 10 k cut off (Millipore catalog #UFC 801024). The samples were spun for 15 minutes at 2500 g in 2 intervals. The conductivity was measured for Chaps alone as well as the samples using a conductivity meter. If the conductivity of samples is high, then 1 ml of chaps was added for buffer exchange and spun again at 2500 g until the volume was down to 250 ul. When the conductivity was 200 or less the samples were spun in 5 min intervals at 2500 g until the volume of the supernatant was between 150-100 ul. The sample supernatants were transferred to eppendorf tubes and Bradford assay was performed using BSA as standard.
The samples were processed as per standard protocols as described above and the amount of protein in each of the samples was determined by Bradford assay. Sample volumes equivalent to 10 ug of protein were prepared as shown below with Lamelli Loading dye (LDS) and MilliQ water were run on a 4-12% Bis-Tris Novex NuPAGE gel (Invitrogen, cat #NP0323Box)
The gels were run for 50 minutes using 1×MOPS buffer using a NOVEX Xcell Surelock system at 200 V. The gels were then transferred for 1 hour using a NOVEX Xcell Surelock wet transfer protocol at 30 V. The blots were stained with Simply Blue Safestain from Invitrogen (LC6065).
After transfer each of the blots was placed in between 2 Whatman Filter papers and dried for 15-20 minutes. After drying the blots were labeled with the date, the type of samples and either blot 1 or blot 2 using a HB pencil. The molecular weight markers were outlined with the pencil and with single lines for the blue and a doublet for the colored markers. The blots were activated with methanol for 5 seconds, washed with water for 5 minutes, and TBST for 15 minutes. The blots were blocked for 1 hour with 5% blocking reagent in TBS-T at room temperature and then washed 3 times with TBS-T (1×-15′; 2×5′ each). Blot 1 was probed with the primary antibody for IDH1 (Cell Signaling #3997) in TBST with 5% BSA (at 1:1000 dilutions) and blot 2 with the rabbit polyclonal antibody for ATP Citrate Lyase in 5% BSA (Cell Signaling #4332) at 1:1000 dilution by incubation overnight at 4 deg C. with shaking. After the overnight incubation with primary antibodies, the blots were washed 3 times with TBS-T (1×-15′; 2×5′ each) and probed with the secondary antibody (antirabbit; 1:10,000 dilution) for 1 hon the orbital tilting shaker at room temperature. After 1 h of incubation with secondary antibodies, the blots were washed 3 times with TBS-T (1×-15′; 2×5′ each) and then incubated with ECF reagent for 5 mins and then each blot scanned with 5100 Fuji Laser scanner at 25 uM resolution, 16 bit, green laser, at 400V and at 500 V.
The samples were processed and run on a 4-12% Bis-Tris Novex NuPAGE gel as described above. The gels were run, transferred and stained essentially as described above.
After transfer the blot was dried for 15-20 minutes, activated with methanol for 5 seconds, washed with water for 5 minutes, and TBST for 15 minutes. The blot was blocked for 1 hour with 5% blocking reagent in TBS-T at room temperature and then washed 3 times with TBS-T (1×-15′; 2×5′ each). […]

Bcl2 = Bcl2 level after administration of CoQ-10 in the presence of VEGF; type: cell-based
Text: The term “Multidimensional Intracellular Molecule (MIM)”, is an isolated version or synthetically produced version of an endogenous molecule that is naturally produced by the body and/or is present in at least one cell of a human. A MIM is characterized by one or more, two or more, three or more, or all of the following functions. MIMs are capable of entering a cell, and the entry into the cell includes complete or partial entry into the cell, as long as the biologically active portion of the molecule wholly enters the cell. MIMs are capable of inducing a signal transduction and/or gene expression mechanism within a cell. MIMs are multidimensional in that the molecules have both a therapeutic and a carrier, e.g., drug delivery, effect. MIMs also are multidimensional in that the molecules act one way in a disease state and a different way in a normal state. […] Preferably, MIMs selectively act in cells of a disease state, and have substantially no effect in (matching) cells of a normal state. Preferably, MIMs selectively renders cells of a disease state closer in phenotype, metabolic state, genotype, mRNA/protein expression level, etc. to (matching) cells of a normal state.

[2] = cited from earlier work

COC1=C(OC)C(=O)C(C/C=C(\C)CC/C=C(\C)CC/C=C(\C)CC/C=C(\C)CC/C=C(\C)CC/C=C(\C)CC/C=C(\C)CC/C=C(\C)CC/C=C(\C)CCC=C(C)C)=C(C)C1=O [Q10, Coenzyme Q10]
PPARGC1A downregulation ([1]; 100 μM Q10, 16 hours): approximately 20 fold
PRKAA1 downregulation ([1]; 100 μM Q10, 16 hours): ~6 fold
SNAP25 downregulation ([1]; 100 μM Q10, 16 hours): ~5 fold
PPARGC1A regulation ([1]; 100 μM Q10, 48 hours): normalized or were slightly upregulated
PRKAA1 regulation ([1]; 100 μM Q10, 48 hours): normalized or were slightly upregulated
SNAP25 downregulation ([1]; 100 μM Q10, 48 hours): approximately 2 fold
genes regulated in the Diabetes Arrays ([1]; PPARGC1A gene): PPARGC1A
genes regulated in the Diabetes Arrays ([1]; PRKAA1 gene): PRKAA1
genes regulated in the Diabetes Arrays ([1]; SNAP25 gene): SNAP25
expression of IDH1 (IDH1; HASMC human aortic smooth muscle cells): did not demonstrate significant changes
expression of IDH1 (IDH1; HDFa primary human derived fibroblasts): did not demonstrate significant changes
IDH1 Average Normalized Intensity (IDH1; HDFa, 24 h, 100 μM): 600
expression of IDH1 (IDH1; HepG2 cells): increased expression
expression of IDH1 (IDH1; MCF-7 cells): increased expression
IDH1 Normalized Intensity (IDH1; PACA2, 5 g, 48 h, 100 μM): 860
expression of IDH1 (IDH1; PaCa-2 cells): increased expression
expression of IDH1 (IDH1; SCC25 cell lines): moderate increase
expression of IDH1 (IDH1; SKMEL28 cells): increased expression
expression of IDH1 (IDH1; nFIB fibroblasts): did not demonstrate significant changes
level of Bcl2 (Bcl2; melanoma cell, in the presence of VEGF): decreased level of Bcl2
levels of Bcl2 (Bcl2; normal fibroblast, co-administration with VEGF): no effect
CoQ10 in the reduced form ([2]; blood (plasma), Bhagavan): ~96%
CoQ10 in the reduced form ([2]; heart): about 61%
molecule found in the reduced form (Q10H2) ([2]; human plasma, Ruiz-Jimenez 2007): 90%
CoQ10 in the reduced form ([2]; intestine): ~95%
CoQ10 in the reduced form ([2]; kidney): ~75%
CoQ10 in the reduced form ([2]; liver): ~95%
CoQ10 in the reduced form ([2]; muscle): ~65%
